In patent US11299493B2, “Heterocyclic compounds and uses thereof” (NUVATION BIO INC., priority 2017, dated 2022):

Tests used:
[1] = molecular target: WEE1 kinase enzyme (Homo sapiens (Human), UniProt P30291); experiment: WEE1 IC50 determination, LanthaScreen Terbium Labeled TR-FRET kinase assay; type: biochemical; details: WEE1 enzyme 1 nM, ATP 10 μM, 1 h
Procedure: IC50 values of compounds against WEE1 kinase enzyme were determined by LanthaScreen™ Terbium Labeled TR-FRET assay. […] After 1 h, […] stop solution containing Terbium labeled antibody (4 nM) (#PV3529, Invitrogen, Life Technologies Grand Island, N.Y.) and EDTA (#E5134, Sigma, St-Louis, Mo.) (20 mM) in TR-FRET dilution buffer (#PV3574, Invitrogen, Life Technologies Grand Island, N.Y.) was added. Readings were taken in a Synergy Neo Plate reader (BioTek, Winooski) at single excitation of 340 nm and Dual emission at 495 nm and 520 nm respectively.
The % activity of test samples was calculated as (Sample−Min)*100/(Max−Min). [Max: DMSO control, complete reaction with enzyme & DMSO and Min: No enzyme & DMSO].

[2] = test system: A427 cells; experiment: Cytotoxicity assay (resazurin) in A427 cells; type: cell-based; details: Homo sapiens, A-427, 72 h, A427, 72 hr, read-out: Cell Viability IC50 A427
Procedure: (§1) Cells were allowed to grow at 37° C. for 24 hr in 5% CO2 environment (culture conditions) in a Nuaire incubator (humidified). Serially diluted test compounds (100 μL) within the desired testing concentration ranges were added to the culture plate were further incubated in culture conditions for 72 hr and 96 hr for A427 and A549 respectively. The experiment was terminated at the designated incubation time by replacing the medium with 100 μL of 1 mM of resazurin (R7017; Sigma) prepared in respective culture medium, and the plates were further incubated in culture conditions for 4-6 hr. Fluorescence was recorded using a multimodal plate reader (Biotek Synergy Neo) at an excitation wavelength of 535 nm and emission wavelength of 590 nm to obtain relative fluorescence units. Data analysis was done by subtracting the background fluorescence (only medium blank) value from each reading and then normalizing with the vehicle control (DMSO treated cells) to obtain percent survival/proliferation. Percent survival was then subtracted by 100 to get the percent inhibition of proliferation which was used to calculate IC50 values.

[3] = test system: A549 cells; experiment: Cytotoxicity assay (resazurin) in A549 cells; type: cell-based; details: Homo sapiens, A549, 96 hr, read-out: Cell Viability IC50 A549
Procedure: as §1

[4] = test system: A427 cells; experiment: Cell proliferation assay (Cell Titer-Glo) in A427 cells; type: cell-based; details: Homo sapiens, A-427, typically 72 h
Procedure: (§2) The effects of test compounds were studied in five cell lines with various histotypes. The cancer cells (Table 4) were harvested during the logarithmic growth period and counted. Adjust cell concentrations to the appropriated number with respective medium, and add 90 μL cell suspensions to 96-well plates. After cells were seeded, the plates were shaken gently to distribute cells evenly and incubated at 37° C., 5% CO2 on day 1.
(§3) Cell viability data were plotted using GraphPad Prism (version 5, GraphPad Software, Inc., San Diego, Calif.). In addition, a nonlinear regression model with a sigmoidal dose response and variable slope within GraphPad Prism was used to calculate the IC50 value of individual test compounds.

[5] = test system: As-Pc-1 cells; experiment: Cytotoxicity assay (resazurin) in As-Pc-1 cells; type: cell-based; details: Homo sapiens, ASPC1; As-Pc-1, resazurin; read-out: Cell Viability IC50 As-Pc-1
Procedure: [The source words this procedure for another cell line and reports this cell line under the same test.] as §1, with “A549 (CCL-185; ATCC) and A427 (HTB-53; ATCC), both lung epithelial cell lines were seeded in their respective medium (DMEM/MEM, 10569044/41090101; Gibco) at a cell count of 1500 cells per 100 μL per well in a 96 well edge plate (167425; ThermoFisher). Cells” for “Cells”, “values. Potency of compounds in other cell lines (As-Pc-1, Panc 10.05, A172) was determined in an analogous manner.” for “values.”

[6] = test system: Panc 10.05 cells; experiment: Cytotoxicity assay (resazurin) in Panc 10.05 cells; type: cell-based; details: Homo sapiens, Panc1005; Panc 10.05, resazurin; read-out: Cell Viability IC50 Panc 10.05
Procedure: [The source words this procedure for another cell line and reports this cell line under the same test.] as §1, with “A549 (CCL-185; ATCC) and A427 (HTB-53; ATCC), both lung epithelial cell lines were seeded in their respective medium (DMEM/MEM, 10569044/41090101; Gibco) at a cell count of 1500 cells per 100 μL per well in a 96 well edge plate (167425; ThermoFisher). Cells” for “Cells”, “values. Potency of compounds in other cell lines (As-Pc-1, Panc 10.05, A172) was determined in an analogous manner.” for “values.”

[7] = test system: A172 cells; experiment: Cytotoxicity assay (resazurin) in A172 cells; type: cell-based; details: Homo sapiens, A 172, read-out: Cell Viability IC50 A172
Procedure: [The source words this procedure for another cell line and reports this cell line under the same test.] as §1, with “A549 (CCL-185; ATCC) and A427 (HTB-53; ATCC), both lung epithelial cell lines were seeded in their respective medium (DMEM/MEM, 10569044/41090101; Gibco) at a cell count of 1500 cells per 100 μL per well in a 96 well edge plate (167425; ThermoFisher). Cells” for “Cells”, “values. Potency of compounds in other cell lines (As-Pc-1, Panc 10.05, A172) was determined in an analogous manner.” for “values.”

[8] = test system: A427 cells; experiment: Activity of compounds in combination with cisplatin in A427 cells (resazurin); type: cell-based; details: Homo sapiens, A-427, 24 hr 2.5 μM cisplatin
Procedure: The activity of test compounds in combination with cisplatin in A427 cells was determined. Cells were seeded in a 96 well plate at 2000 cells/well. The next day, cells were treated with 2.5 μM cisplatin or vehicle (1×PBS) and incubated in culture conditions (37° C., 5% CO2) for 24 hr. Following the incubation, culture medium was replaced with medium containing test compound and cisplatin/vehicle, and cells were further incubated in culture conditions for another 72 hr. By this procedure, cisplatin was either continued or discontinued after an initial 24-hr incubation. Addition of test compound was in concentrations needed to obtain an 8-point dose response curve, with concentrations prepared by 3-fold dilution. The assay was terminated upon addition of resazurin, incubation for 4 hr in culture conditions and measurement of fluorescence at excitation and emission wavelengths of 535 and 590 nm, respectively.

[9] = test system: Panc 10.05 cells; experiment: Synergistic activity with gemcitabine, combination matrix method, Panc 10.05 cells; type: cell-based; details: fractional effect level of about 0.5, Chou-Talalay
Procedure: (§4) Determination of synergistic activity of compounds in combination with a chemotherapeutic drug on cell viability is determined by a combination matrix method. Chemotherapeutics that may be used in the combination include but are not limited to a platinum-based chemotherapeutic agent, a DNA alkylating agent, a topoisomerase inhibitor, an anthracycline, a histone deacetylase inhibitor, a bromodomain inhibitor, a kinase inhibitor, a mTOR inhibitor, a PARP inhibitor, an ATM inhibitor, an ATR inhibitor, a Wee1 inhibitor, a proteasome inhibitor, and a nucleotide analog or precursor analog. Cancer cell lines that may be used in the assay include but are not limited to lung cancer, leukemia, lymphoma, multiple myeloma, ovarian cancer, breast cancer, pancreatic cancer, stomach cancer, colon cancer, liver cancer, head and neck cancer, kidney cancer, skin cancer and brain cancer cell lines. Cells are seeded in a 96-well plate and incubated at 37° C. in cell culture conditions for 24 hr. […] Measurement of fluorescence at an excitation and emission wavelength of 535 and 590 nm respectively. Synergy is evaluated with the combination index (CI) value using the Chou-Talalay method in which additive effect (CI=1), synergism (CI<1), and antagonism (CI>1) in drug combinations is determined (Chou T C. Cancer Res 2010; 70:440-6.). […]

[10] = test system: AsPC-1 cells; experiment: Synergistic activity with gemcitabine, combination matrix method, AsPC-1 cells; type: cell-based; details: fractional effect level of about 0.5, Chou-Talalay
Procedure: as §4

[11] = test system: A2780 cells; experiment: Cell proliferation assay (Cell Titer-Glo) in A2780 cells; type: cell-based; details: Homo sapiens, typically 72 h
Procedure: as §2
Cells were treated with test compounds at 9 concentrations within a desired concentration range (e.g. 1.5 nM-10 μM) on day 2 by series diluting the test compound stock solution (10 mM in DMSO) with culture medium. Cell viability was assessed by Cell Titer-Glo® as recommended by Promega (Cat. No.: G7572, Promega) typically 72 h post-treatment.
as §3

[12] = then compound + cisplatin 72 hr, read-out: Cell viability IC50 in A427 cells with 2.5 μM cisplatin: 24 hr cisplatin then compound + cisplatin
[13] = then compound alone 72 hr, read-out: Cell viability IC50 in A427 cells with 2.5 μM cisplatin: 24 hr cisplatin then compound

WEE1 kinase enzyme, sequence (P30291 whole entry): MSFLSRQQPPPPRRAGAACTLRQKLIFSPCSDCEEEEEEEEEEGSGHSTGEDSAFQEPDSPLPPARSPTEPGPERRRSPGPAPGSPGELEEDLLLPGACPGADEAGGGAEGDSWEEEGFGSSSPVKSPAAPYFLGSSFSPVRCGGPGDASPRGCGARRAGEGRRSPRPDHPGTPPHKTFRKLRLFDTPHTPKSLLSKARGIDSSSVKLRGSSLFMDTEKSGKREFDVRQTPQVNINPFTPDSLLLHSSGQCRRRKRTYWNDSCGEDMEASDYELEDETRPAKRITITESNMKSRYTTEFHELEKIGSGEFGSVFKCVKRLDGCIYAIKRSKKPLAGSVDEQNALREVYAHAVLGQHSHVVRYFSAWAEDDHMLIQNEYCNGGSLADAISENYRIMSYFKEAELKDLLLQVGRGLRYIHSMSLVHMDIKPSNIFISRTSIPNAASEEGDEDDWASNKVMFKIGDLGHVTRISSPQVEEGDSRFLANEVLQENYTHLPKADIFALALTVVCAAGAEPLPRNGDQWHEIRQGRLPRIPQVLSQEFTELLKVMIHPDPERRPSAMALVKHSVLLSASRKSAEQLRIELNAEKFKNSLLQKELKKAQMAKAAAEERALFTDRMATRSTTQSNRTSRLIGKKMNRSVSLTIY

IC50 [1] [nM]	IC50 [11] [nM]	SMILES	IC50 [2] [nM]	IC50 [3] [nM]	IC50 [4] [nM]	IC50 [5] [nM]	IC50 [6] [nM]	IC50 [7] [nM]	IC50 [8, 12] [nM]	IC50 [8, 13] [nM]	combination index with gemcitabine [9]	combination index with gemcitabine [10]
4	–	CC(C)n1c(=O)c2cnc(Nc3ccc4c(c3)CCNC4)nc2n1-c1ccnc(C(C)(C)C)n1 [Example 2.183]	135	1800	–	95	805	1640	–	–	–	–
2	–	CC(C)n1c(=O)c2cnc(Nc3ccc4c(c3)CNCC4)nc2n1-c1ccnc(C(C)(C)C)n1 [Example 2.184]	90	655	–	85	545	985	–	–	–	–
62	–	CC(C)(C)c1cc(-n2c3nc(Nc4ccc5c(c4)CCNC5(C)C)ncc3c(=O)n2C2CC2)ccn1 [Example 2.182]	720	7750	–	1740	8600	10600	–	–	–	–
53	–	CC(C)n1c(=O)c2cnc(Nc3ccc4c(c3)CCNC4)nc2n1-c1ccn(C2CC2)n1 [Example 2.188]	815	910	–	965	3100	1520	–	–	–	–

Continued, compound first:

SMILES	IC50 [1] [nM]	IC50 [11] [nM]	IC50 [2] [nM]	IC50 [3] [nM]	IC50 [4] [nM]	IC50 [5] [nM]	IC50 [6] [nM]	IC50 [7] [nM]	IC50 [8, 12] [nM]	IC50 [8, 13] [nM]	combination index with gemcitabine [9]	combination index with gemcitabine [10]
C=CCn1c(=O)c2cnc(Nc3ccc4c(c3)CN(C(=O)C(C)(C)O)CC4(C)C)nc2n1-c1cccc(C(C)(C)O)n1 [Example 1.3]	< 2	–	620	1220	483	–	–	–	–	–	–	–
CCn1c(=O)c2cnc(Nc3ccc4c(c3)CN(C)CC4(C)C)nc2n1-c1cccc(C(C)(C)O)n1 [Example 1.16]	4.5	–	1420	1550	–	–	–	–	< 14	100	–	–
C=CCn1c(=O)c2cnc(Nc3ccc4c(c3)CN(C(=O)CO)CC4)nc2n1-c1cccc(C(C)(C)O)n1 [Example 1.2]	4	–	330	842	269	–	–	–	–	–	–	–
CC(C)n1c(=O)c2cnc(Nc3ccc4c(c3)CCNC4)nc2n1-c1ccnc(C(C)(C)C)c1 [Example 1.138]	6	–	993	2420	–	200	2820	4090	–	–	less than 1	less than 1
CC(C)(C)c1cccc(-n2c3nc(Nc4ccc5c(c4)CCNC5)ncc3c(=O)n2C2CC2)n1 [Example 1.143]	3	–	470	2850	–	270	1850	3620	–	–	–	–
CC(C)n1c(=O)c2cnc(Nc3ccc4c(c3)CCNC4)nc2n1-c1cccc(C(C)(C)F)n1 [Example 1.140]	5	–	555	–	–	–	1520	–	–	–	–	–
CCn1c(=O)c2cnc(Nc3ccc4c(c3)CNCC4)nc2n1-c1cccc(C(C)(C)O)n1 [Example 1.7]	3	1100	800	660	–	–	–	–	–	–	–	–
C=CCn1c(=O)c2cnc(Nc3ccc4c(c3)CN(C(=O)CO)CC4(C)C)nc2n1-c1cccc(C(C)(C)O)n1 [Example 1.6]	3.1	–	355	972	277	–	–	–	–	–	–	–
CC(C)(F)c1cccc(-n2c3nc(Nc4ccc5c(c4)CCNC5)ncc3c(=O)n2C2CC2)n1 [Example 1.146]	9	–	965	6680	–	920	5700	6820	–	–	–	–
CCn1c(=O)c2cnc(Nc3ccc4c(c3)CCNC4)nc2n1-c1cccc(C(C)(C)O)n1 [Example 1.12]	4	–	1720	1060	–	–	–	–	70	120	–	–
